Data set [1] has as its system CD34+ follicular SCs and p63-positive progenitors. The data set can be described thus: CD34+ follicular epithelial stem cells and p63+ progenitors in mouse skin (immunostaining). The following applies: chronic FA treatment. In kind it is in vivo. The text has this: Sections of formalin-fixed, paraffin-embedded skin and ORCs were stained with hematoxylin and eosin (H&E), Masson's trichrome to evaluate the effect on dermis and collagen fibers (Sheehan & Hrapchack, 1980), and with antibodies against BrdU (BD Biosciences, San Jose, Calif., USA), keratins 1, 5, and 10, loricrin (Covance, Princeton, N.J.), phospho-mTORSer2448 (Cell Signaling Technology, Inc., Danvers, Mass., USA), REDD1 (Proteintech Group, Inc, Chicago, Ill.), p63 (eBioscience, San Diego, Calif., USA), and CD34 (Abcam, Cambridge, Mass., USA).
The numbers of BrdU+, p63+, and total number of basal keratinocytes were evaluated in 10 fields of view in each skin/ORC sample under the microscope. Number of BrdU+ and p63+ cells is presented as percent of total number of basal keratinocytes. The number of CD34+ hair follicles among 10 randomly selected hair follicles per skin sample was evaluated under the microscope.

A further data set concerns GR. Kind of data set: GR phosphorylation at Ser211 (Western blot) in HaCaT and CEM cells. The class given is cell-based, human. The conditions noted are these: 1 uM FA. The protocol: FIG. 15. Rapamycin inhibits GR nuclear translocation and phosphorylation. A. GR nuclear translocation in HaCaT cells was determined by immunofluorescence as described in Materials and Methods. Cells on coverslips were pretreated with solvent (Control) or Rapamycin (1 uM×6 h) and treated with 1 uM FA for indicated time. B. GR nuclear translocation in CEM cells was determined by Western blot analysis of nuclear protein extracts. Membranes were probed with anti-HDAC-1 antibodies to verify equal protein loading and transfer. C, D. GR phosphorylation in HaCaT (C) and CEM (D) cells was determined by Western blot analysis of whole cell lysates. Membranes were probed with anti-GAPDH antibodies to verify equal protein loading and transfer.
The whole-cell protein extracts were prepared using RIPA buffer with protease and phosphatase inhibitor cocktails (Thermo Scientific, Thermo Fisher Scientific Inc., Waltham, Mass., USA), resolved by SDS-PAGE on 4-20% gels and transferred to Odyssey nitrocellulose membranes (LI-COR Biosciences, Lincoln, Neb., USA). Membranes were blocked with Odyssey Blocking Buffer and incubated with primary antibodies overnight at 4° C., followed by IRDye® secondary antibodies (LI-COR Biosciences). LI-COR Odyssey Imager was used for the band visualization. […]
On the technique in general: Immunoblotting shows a protein as a band on a membrane.

The next data set relates to mouse skin. Kind of data set: Glucocorticoid-induced skin atrophy in mice (morphometric analysis of dorsal skin). The class given is in vivo. The protocol:
Seven-week-old females in the telogen stage of the hair cycle were shaved and treated 3 days later. Glucocorticoid FA was applied topically (2 μg/animal) in 200 μl acetone to the back skin once or up to four times every third day as described (Chebotaev et al, 2007c). Control animals were treated with acetone only. Animals were injected i.p. with bromodeoxyuridine (BrdU, Sigma-Aldrich, 50 μg/g of animal weight) 1 h before skin was harvested. Epidermis and s.c. fat were isolated from the murine dorsal skin mechanically by scraping (Chebotaev et al, 2007c). […] Quantification of the epidermal width and number of basal keratinocytes (as the readouts for skin atrophy and hypoplasia of raft epidermis) was performed in dorsal skin and ORC sections stained with H&E. The number of dermal cells was determined on sections stained with Masson's trichrome in the upper (papillary) dermis that is distinguishable from the lower (reticular) dermis ([…] et al, 2013). At least 10 individual fields per slide with at least three samples in each experimental group were counted using Axioplan2 microscope software (Carl Zeiss). All measurements are presented as % to corresponding control.

Data set [2] concerns croton oil-induced ear edema. Kind of data set: Croton oil-induced ear edema test. In kind it is in vivo, mouse.
Another data set deals with LC3. Kind of data set: Autophagy in mouse epidermis (LC3-I to LC3-II conversion, Beclin-1). The class given is in vivo. The following applies: FA-treated mouse skin. The procedure: In accordance, we observed in FA-treated skin the conversion of light chain 3 (LC3) from its free form (LC3-I) to a membrane-bound state (LC3-II), a key step that initiates autophagy in mammalian cells (Klionsky et al, 2012). LC3-I to LC3-II conversion reached its maximum 8 h after FA treatment and paralleled with the increase of another autophagy marker Beclin-1, highest REDD1 expression and strongest repression of mTOR activity (FIGS. 2C, D).
The whole-cell protein extracts were prepared using RIPA buffer with protease and phosphatase inhibitor cocktails (Thermo Scientific, Thermo Fisher Scientific Inc., Waltham, Mass., USA), resolved by SDS-PAGE on 4-20% gels and transferred to Odyssey nitrocellulose membranes (LI-COR Biosciences, Lincoln, Neb., USA). Membranes were blocked with Odyssey Blocking Buffer and incubated with primary antibodies overnight at 4° C., followed by IRDye® secondary antibodies (LI-COR Biosciences). LI-COR Odyssey Imager was used for the band visualization. Equal loading and adequate transfer to the membranes were verified by staining with Ponceau S (Sigma-Aldrich) and with anti-GAPDH (Sigma-Aldrich) antibody. We used Abs against: REDD1 (Proteintech Group, Inc., Chicago, Ill.), LC3B, phospho-rpS6Ser240/244, phospho-4E-BP1Thr37/46, phospho-GRSer211 (Cell Signaling Technology, Inc.), and GR (H-300 or M-20, Santa Cruz Biotechnology, Inc.).

The test system of another data set is pri-miR-221. The data set can be described thus: Q-PCR analysis of primary miR-221 in mouse epidermis. In kind it is in vivo. The following applies: 24 h after single FA application and after the first week of chronic treatment. The procedure: FIG. 9. Inverse correlation between pri-miR-221 and REDD1 expression during glucocorticoid treatment. B6D2 mice were treated with FA topically as described in Materials and Methods, epidermis was harvested at indicated time points. A. Western blot analysis. B. Q-PCR analysis of primary miR-221. Data are expressed as the fold change (mean±SD) with respect to the controls (unpaired two-tailed t-test, n=3).
Total RNA from murine epidermis, whole human skin, and cell cultures was isolated with RiboPure kit (Ambion, Life Technologies, Grand Island, N.Y., USA). Total RNA from murine s.c. adipose was isolated with RNeasy Lipid Tissue Kit (Qiagen, Valencia, Calif., USA). The RNA samples were treated with TURBOT™ DNase (Ambion). The gene expression was assessed using semi-quantitative two-step RT-PCR and quantitative Q-PCR. Reverse transcription was performed using 1 μg RNA, random hexamers, and M-MLV reverse transcriptase (Invitrogen, Life Technologies), according to manufacturer instructions. The gene-specific primers were designed with NCBI Primer-BLAST (data not shown, see Baida et al., EMBO, 2015, at Supplementary Table S4). […] For semi-quantitative PCRs, Taq DNA polymerase (Promega) was used, and PCR products were separated on 1.5% agarose gel and visualized using automated imaging system (Bio-Rad, Hercules, Calif., USA). […]

Where [3] appears, read: B6D2 mice, FA 2 μg/animal topically every 72 h, 2-week treatment.

Where only a bound is given, the exact number is not on record here.

In the case of `CC1(C)O[C@@H]2C[C@H]3[C@@H]4C[C@H](F)C5=CC(=O)C=C[C@]5(C)[C@@]4(F)[C@@H](O)C[C@]3(C)[C@]2(C(=O)CO)O1` [FA, fluocinolone acetonide], in data set [1] (REDD1 KO mice), the “decrease in number of p63+ basal keratinocytes” value is 20% and the “hair follicles CD34 positive” value is reported as 40%. In data set [1] (wild-type mice), the “decrease in number of p63-positive progenitors in the basal layer of epidermis” value is reported as ~40% and the “hair follicles CD34 positive” value is on record as 5%. In addition, in the data set with GR, the “GR phosphorylation at Ser211” value is given as “induced quick GR phosphorylation”. Moreover, in the data set on mouse skin (setting [3]), the “depletion of the interfollicular basal keratinocytes” value worked out at 50% and the epidermal thinning was determined as 50%. In the data set with mouse skin (B6D2 mice, chronic FA treatment), the “depletion of s.c. adipose tissue” value is on record as “complete depletion”. Moreover, the “reduction of epidermal thickness” value in the data set with mouse skin (B6×129 mice, FA 2 ug/animal every 72 h for 2 weeks, with or without rapamycin 500 ug/animal×5 hrs pretreatment) worked out at 50%. Also, in the data set with mouse skin (F1 C57B1×129 mice, topical FA, 2 wk treatment), the skin atrophy result is listed as “severe skin atrophy”. In addition, the “reduction of epidermal thickness” value in the data set with mouse skin (REDD1 KO mice, chronic FA 2 μg/animal every 72 h for 2 weeks) is < 20%. In the data set on mouse skin (w.t. B6×129 mice treated with FA×2 wk, Masson's trichrome), the “number of dermal fibroblasts” value is “strongly decreased”. Besides, the “reduction of epidermal thickness” value in the data set on mouse skin (wild-type B6×129 mice, chronic FA 2 μg/animal every 72 h for 2 weeks) was found to be 50%. For the same molecule, the “ear edema / ear weight” value in data set [2] (croton oil 20 ul/ear, FA 1 ug/ear 1 h before CO, weighed 9 h after CO) is “reduced edema decreasing the ear weight to control level”. In data set [2] (wild-type and REDD1 KO mice, FA 2 μg 1 h before croton oil, 9 h after CO), the “anti-inflammatory effect (ear morphology and ear punch weight)” value is on record as “relieved this inflammatory response with equal potency”. Moreover, in the data set on LC3, the “time of maximum LC3-I to LC3-II conversion after treatment” value is listed as 8 h. Besides, the pri-miR-221 level entry in the data set with pri-miR-221 was “significantly increased”.

The record behind these values is US9980976B2, “Use of REDD1 inhibitors to dissociate therapeutic and adverse atrophogenic effects of glucocorticoid receptor agonists” (Northwestern University, priority 2015, dated 2018).
